Laboratory results taken from ChEMBL document CHEMBL2331260, “Discovery of thieno[3,2-d]pyrimidine-6-carboxamides as potent inhibitors of SIRT1, SIRT2, and SIRT3” (J Med Chem, 2013).
In brackets after ≈: the same amount, converted by molar mass.

Experiments:
[1] = molecular target: T1, NAD-dependent protein deacetylase sirtuin-1 (Homo sapiens, UniProt Q96EB6); assay: Inhibition of GST-tagged SIRT1 (unknown origin) using KI177 as substrate after 1 hr by spectrophotometric analysis
T1 sequence (Q96EB6 whole entry): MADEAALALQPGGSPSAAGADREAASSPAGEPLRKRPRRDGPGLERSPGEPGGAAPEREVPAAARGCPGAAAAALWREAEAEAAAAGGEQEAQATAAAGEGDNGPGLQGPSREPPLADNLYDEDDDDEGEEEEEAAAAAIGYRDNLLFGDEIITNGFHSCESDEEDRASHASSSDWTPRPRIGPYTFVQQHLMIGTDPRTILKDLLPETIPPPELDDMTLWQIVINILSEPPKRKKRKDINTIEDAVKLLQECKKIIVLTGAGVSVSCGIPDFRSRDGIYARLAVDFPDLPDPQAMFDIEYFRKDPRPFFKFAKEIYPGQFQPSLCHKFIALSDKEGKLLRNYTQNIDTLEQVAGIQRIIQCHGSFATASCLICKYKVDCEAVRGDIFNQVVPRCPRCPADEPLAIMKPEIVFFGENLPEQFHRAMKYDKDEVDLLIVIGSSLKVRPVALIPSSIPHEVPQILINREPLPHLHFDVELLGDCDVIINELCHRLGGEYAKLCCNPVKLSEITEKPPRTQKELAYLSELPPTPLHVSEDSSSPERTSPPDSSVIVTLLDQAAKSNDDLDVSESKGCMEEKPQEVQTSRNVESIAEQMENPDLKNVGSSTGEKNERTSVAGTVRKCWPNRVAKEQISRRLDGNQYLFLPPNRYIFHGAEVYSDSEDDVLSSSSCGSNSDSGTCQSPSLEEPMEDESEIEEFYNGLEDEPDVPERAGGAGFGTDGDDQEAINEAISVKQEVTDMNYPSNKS

[2] = molecular target: T2, NAD-dependent protein deacetylase sirtuin-3, mitochondrial (Homo sapiens, UniProt Q9NTG7); assay: Inhibition of His-tagged SIRT3 (unknown origin) using KI179 as substrate after 1 hr by spectrophotometric analysis
T2 sequence (Q9NTG7 whole entry): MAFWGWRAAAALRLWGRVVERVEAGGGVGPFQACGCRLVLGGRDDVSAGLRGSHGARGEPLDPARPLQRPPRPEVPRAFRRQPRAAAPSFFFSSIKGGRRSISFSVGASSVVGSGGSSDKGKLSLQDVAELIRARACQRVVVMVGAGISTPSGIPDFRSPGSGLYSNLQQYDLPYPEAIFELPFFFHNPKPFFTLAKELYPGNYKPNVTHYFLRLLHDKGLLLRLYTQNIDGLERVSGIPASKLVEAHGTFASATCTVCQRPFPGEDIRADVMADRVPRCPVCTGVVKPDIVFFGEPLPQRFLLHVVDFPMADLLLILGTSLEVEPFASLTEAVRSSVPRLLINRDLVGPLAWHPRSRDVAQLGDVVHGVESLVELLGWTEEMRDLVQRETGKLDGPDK

[3] = molecular target: T3, NAD-dependent protein deacetylase sirtuin-2 (Homo sapiens, UniProt Q8IXJ6); assay: Inhibition of His-tagged SIRT2 (1 to 389) (unknown origin)-mediated deacetylation of Ac-RHKKAcW-NH2 substrate incubated for 20 mins prior to substrate addition measured after 30 mins by mass spectrophotometric analysis
T3 sequence (Q8IXJ6 whole entry): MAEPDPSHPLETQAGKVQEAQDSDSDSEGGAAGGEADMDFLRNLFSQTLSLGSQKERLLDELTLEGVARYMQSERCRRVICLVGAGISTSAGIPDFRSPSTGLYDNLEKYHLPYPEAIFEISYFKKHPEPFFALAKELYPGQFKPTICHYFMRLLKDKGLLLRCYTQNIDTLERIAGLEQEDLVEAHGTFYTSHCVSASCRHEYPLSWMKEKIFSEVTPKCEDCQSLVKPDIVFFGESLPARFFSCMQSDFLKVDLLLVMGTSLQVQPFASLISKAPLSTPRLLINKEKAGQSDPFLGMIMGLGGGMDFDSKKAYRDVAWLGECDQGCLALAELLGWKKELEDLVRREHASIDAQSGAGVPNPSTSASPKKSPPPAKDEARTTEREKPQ

[4] = molecular target: T2, NAD-dependent protein deacetylase sirtuin-3, mitochondrial; assay: Inhibition of human His-tagged SIRT3 (102 to 399) expressed in Escherichia coli BL21(DE3) assessed as inhibition of deacetylation of Ac-RHKKAcW-NH2 substrate preincubated for 20 mins measured after 30 mins by mass spectrophotometric analysis
[5] = molecular target: T1, NAD-dependent protein deacetylase sirtuin-1; assay: Inhibition of His-tagged SIRT1 (1 to 747) (unknown origin)-mediated deacetylation of Ac-RHKKAcW-NH2 substrate preincubated for 20 mins measured after 30 mins by mass spectrophotometric analysis
[6] = Kinetic solubility in PBS at pH 7.4 by chemiluminescent nitrogen detection assay
Cytochrome P450 1A2 = molecular target: T4, Cytochrome P450 1A2 (Homo sapiens, UniProt P05177); assay: Inhibition of CYP1A2 (unknown origin); format: ADME
T4 sequence (P05177 whole entry): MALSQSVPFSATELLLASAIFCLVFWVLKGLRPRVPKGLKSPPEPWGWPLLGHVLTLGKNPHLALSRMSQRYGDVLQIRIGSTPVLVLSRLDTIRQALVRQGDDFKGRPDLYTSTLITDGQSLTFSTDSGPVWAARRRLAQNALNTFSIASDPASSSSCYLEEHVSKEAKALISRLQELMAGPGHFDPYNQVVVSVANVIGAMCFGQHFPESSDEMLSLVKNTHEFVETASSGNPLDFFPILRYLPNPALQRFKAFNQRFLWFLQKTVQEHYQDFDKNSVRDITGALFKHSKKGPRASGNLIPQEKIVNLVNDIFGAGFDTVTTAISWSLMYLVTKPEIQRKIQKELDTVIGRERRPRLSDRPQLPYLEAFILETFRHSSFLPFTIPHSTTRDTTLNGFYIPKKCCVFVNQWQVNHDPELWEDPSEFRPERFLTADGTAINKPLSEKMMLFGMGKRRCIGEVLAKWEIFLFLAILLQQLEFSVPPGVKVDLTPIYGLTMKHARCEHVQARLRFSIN

[7] = Intrinsic clearance in mouse liver microsomes measured per mg of protein; format: ADME, Microsome; conditions: read-out: CLH
Cytochrome P450 2D6 = Cytochrome P450 2D6 (Homo sapiens, UniProt P10635); assay: Inhibition of CYP2D6 (unknown origin); format: ADME
Cytochrome P450 2C19 = Cytochrome P450 2C19 (Homo sapiens, UniProt P33261); assay: Inhibition of CYP2C19 (unknown origin); format: ADME
Cytochrome P450 3A4 = Cytochrome P450 3A4 (Homo sapiens, UniProt P08684); assay: Inhibition of CYP3A4 (unknown origin); format: ADME
[8] = molecular target: Voltage-gated inwardly rectifying potassium channel KCNH2 (Homo sapiens, UniProt Q12809); assay: Inhibition of human ERG by dofetilide binding assay
[9] = Intrinsic clearance in human liver microsomes measured per mg of protein; format: ADME, Microsome; conditions: read-out: CLH

Chain of Cytochrome P450 3A4 (P08684 whole entry): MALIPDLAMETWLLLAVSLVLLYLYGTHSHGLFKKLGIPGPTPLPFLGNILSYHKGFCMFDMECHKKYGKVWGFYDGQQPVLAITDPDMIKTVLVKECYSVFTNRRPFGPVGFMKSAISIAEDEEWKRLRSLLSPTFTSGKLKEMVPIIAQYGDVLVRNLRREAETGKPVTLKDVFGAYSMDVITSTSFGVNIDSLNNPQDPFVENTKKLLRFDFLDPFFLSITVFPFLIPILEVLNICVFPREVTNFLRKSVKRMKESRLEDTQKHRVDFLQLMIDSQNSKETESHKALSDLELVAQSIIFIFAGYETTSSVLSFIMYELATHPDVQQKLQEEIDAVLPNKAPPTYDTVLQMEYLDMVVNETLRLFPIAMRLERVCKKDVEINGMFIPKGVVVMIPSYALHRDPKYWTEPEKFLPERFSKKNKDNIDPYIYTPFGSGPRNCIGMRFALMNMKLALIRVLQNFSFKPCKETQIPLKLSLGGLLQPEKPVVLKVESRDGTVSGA
Chain of Cytochrome P450 2D6 (P10635 whole entry): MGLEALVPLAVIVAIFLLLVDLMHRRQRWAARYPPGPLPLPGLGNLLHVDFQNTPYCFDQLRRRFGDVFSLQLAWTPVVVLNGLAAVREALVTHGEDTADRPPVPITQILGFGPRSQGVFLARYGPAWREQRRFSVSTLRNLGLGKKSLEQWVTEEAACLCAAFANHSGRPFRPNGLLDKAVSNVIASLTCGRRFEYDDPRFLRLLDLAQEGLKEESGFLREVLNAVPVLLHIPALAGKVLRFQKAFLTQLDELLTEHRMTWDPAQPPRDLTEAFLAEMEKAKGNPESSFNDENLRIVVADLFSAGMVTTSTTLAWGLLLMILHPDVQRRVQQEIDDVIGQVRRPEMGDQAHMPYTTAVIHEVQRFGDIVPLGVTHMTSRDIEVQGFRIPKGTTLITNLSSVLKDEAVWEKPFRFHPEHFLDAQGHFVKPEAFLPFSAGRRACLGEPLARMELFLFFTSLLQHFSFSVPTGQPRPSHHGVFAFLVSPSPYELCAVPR
Chain of Cytochrome P450 2C19 (P33261 whole entry): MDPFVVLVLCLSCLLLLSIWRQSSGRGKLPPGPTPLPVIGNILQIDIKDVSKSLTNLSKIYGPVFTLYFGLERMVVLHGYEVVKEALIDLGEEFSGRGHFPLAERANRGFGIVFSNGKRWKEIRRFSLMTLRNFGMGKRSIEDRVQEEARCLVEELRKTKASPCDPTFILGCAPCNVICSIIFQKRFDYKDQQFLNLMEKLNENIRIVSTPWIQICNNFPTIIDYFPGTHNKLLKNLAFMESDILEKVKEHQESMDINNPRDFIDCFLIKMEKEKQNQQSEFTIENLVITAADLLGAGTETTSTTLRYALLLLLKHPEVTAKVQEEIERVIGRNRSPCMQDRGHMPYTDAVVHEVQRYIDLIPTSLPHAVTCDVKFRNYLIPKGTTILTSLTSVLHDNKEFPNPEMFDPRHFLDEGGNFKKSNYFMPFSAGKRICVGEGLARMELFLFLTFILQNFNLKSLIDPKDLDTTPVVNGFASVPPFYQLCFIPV
Chain of Voltage-gated inwardly rectifying potassium channel KCNH2 (Q12809 whole entry): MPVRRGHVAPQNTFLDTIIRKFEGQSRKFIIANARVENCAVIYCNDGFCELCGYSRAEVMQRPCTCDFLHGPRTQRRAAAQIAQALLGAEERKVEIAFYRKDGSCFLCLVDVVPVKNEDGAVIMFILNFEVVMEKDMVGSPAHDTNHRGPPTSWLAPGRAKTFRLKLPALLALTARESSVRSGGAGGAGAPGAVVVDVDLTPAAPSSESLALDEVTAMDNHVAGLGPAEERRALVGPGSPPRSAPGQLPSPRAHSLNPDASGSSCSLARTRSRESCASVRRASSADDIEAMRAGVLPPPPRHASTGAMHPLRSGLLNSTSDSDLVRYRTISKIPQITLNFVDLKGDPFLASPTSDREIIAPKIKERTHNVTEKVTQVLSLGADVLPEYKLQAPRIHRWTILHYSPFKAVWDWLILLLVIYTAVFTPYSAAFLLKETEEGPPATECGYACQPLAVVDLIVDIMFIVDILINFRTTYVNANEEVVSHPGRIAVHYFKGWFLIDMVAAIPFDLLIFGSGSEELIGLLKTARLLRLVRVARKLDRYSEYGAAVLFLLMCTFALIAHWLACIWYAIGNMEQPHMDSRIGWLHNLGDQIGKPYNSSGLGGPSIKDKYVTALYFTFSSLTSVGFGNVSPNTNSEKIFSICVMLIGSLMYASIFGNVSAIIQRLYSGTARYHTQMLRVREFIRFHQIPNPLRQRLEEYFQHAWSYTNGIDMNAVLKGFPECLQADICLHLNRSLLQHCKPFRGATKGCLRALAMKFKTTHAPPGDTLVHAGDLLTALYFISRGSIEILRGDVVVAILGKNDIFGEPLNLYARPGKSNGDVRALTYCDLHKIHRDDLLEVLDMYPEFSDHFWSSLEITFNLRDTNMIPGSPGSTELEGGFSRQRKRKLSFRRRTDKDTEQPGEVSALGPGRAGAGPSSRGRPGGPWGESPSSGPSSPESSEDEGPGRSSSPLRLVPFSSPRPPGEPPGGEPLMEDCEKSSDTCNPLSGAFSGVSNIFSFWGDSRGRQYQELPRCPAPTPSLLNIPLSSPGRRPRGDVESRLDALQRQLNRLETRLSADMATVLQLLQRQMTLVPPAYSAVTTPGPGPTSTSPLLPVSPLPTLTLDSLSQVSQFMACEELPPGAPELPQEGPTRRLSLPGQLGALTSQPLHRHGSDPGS

Structure (SMILES) | IC50 [3] | IC50 [5] | solubility kinetic [6] | further results
CCCCC[C@H]1CC(=O)c2cc(Cl)cc(Br)c2O1 |  |  |  | IC50 [1]: > 200000 nM; IC50 [2]: > 200000 nM
CC(C)(C)OC(=O)c1ccc(C(=O)NCCC2CCN(c3ncnc4cc(C(N)=O)sc34)CC2)s1 | 1.8 nM | 6.7 nM |  | 
NC(=O)c1cc2ncnc(N3CCC(CCNC(=O)c4ccc(C(=O)O)s4)CC3)c2s1 | 4.4 nM |  |  | 
NC(=O)c1cc2ncnc(N3CCC(CCNC(=O)c4cccs4)CC3)c2s1 | 6.5 nM | 5.8 nM |  | 
CC(C)(C)OC(=O)NCCC1CCN(c2ncnc3cc(C(N)=O)sc23)CC1 | 5.4 nM |  |  | 
CC(C)(C)C(=O)NCCC1CCN(c2ncnc3cc(C(N)=O)sc23)CC1 |  |  | 297 µM (≈ 116 µg/mL) | IC50 (Cytochrome P450 1A2): > 50000 nM; microsomal CLint [7]: 12.7 µL/min/mg; IC50 (Cytochrome P450 2D6): > 50000 nM; IC50 (Cytochrome P450 2C19): > 50000 nM; IC50 (Cytochrome P450 3A4): > 50000 nM; IC50 [8]: > 50000 nM; microsomal CLint [9]: 15.8 µL/min/mg
CS(=O)(=O)NCCC1CCN(c2ncnc3cc(C(N)=O)sc23)CC1 | 1.1 nM |  |  | 
CC(C)(C)C(=O)NCCC1CCN(c2ncnc3cc(C(=O)O)sc23)CC1 | > 50000 nM | > 50000 nM |  | 

The next lines start with results.

IC50 [3] | IC50 [5] | solubility kinetic [6] | Structure (SMILES) | further results
1.3 nM | 5.3 nM | 19 µM (≈ 9.13 µg/mL) | CCNC(=O)c1cccc(C(=O)NCCC2CCN(c3ncnc4cc(C(N)=O)sc34)CC2)c1 | IC50 [4]: 4.9 nM
 |  | 220 µM (≈ 106 µg/mL) | CCNC(=O)c1cccc(C(=O)NCCN2CCN(c3ncnc4cc(C(N)=O)sc34)CC2)c1 | 
 |  | 9 µM (≈ 4.38 µg/mL) | CCNC(=O)c1ccc(C(=O)NCCC2CCN(c3ncnc4cc(C(N)=O)sc34)CC2)s1 | 
4.8 nM |  | 65 µM (≈ 31.7 µg/mL) | CCNC(=O)c1ccc(C(=O)NCCN2CCN(c3ncnc4cc(C(N)=O)sc34)CC2)s1 | 
